Measurements published in patent US20180002692A1, “Sequence Specific and Organism Specific Antimicrobials and Related Materials and Methods” (priority 2015, published 2018).
“Also recorded” adds a separate entry of the source.

Legend:
[1] = system: ampicillin-resistant E. coli; format: cell-based; details: no α-TSS (no treatment)
Experimental: Three biological replicates were selected from colonies and pretreated for 16 hr with respective α-TSS concentration in liquid media. After pretreatment, the cultures were diluted 1:100,000 into liquid media with respective concentration of ampicillin and α-TSS and allowed to grow with shaking at 37° C. for 24 hr. The final OD at 562 nm at 24 hr was used for data analysis.
Data fitting analysis was performed in Origin Pro 6.1. Data was fit to a sigmoidal/decay Boltzman function.
The degree of re-sensitization exerted by α-TSS in presence of varying concentrations of ampicillin above and below the MIC determined for α-TSS was then evaluated.

[2] = system: MDR Salmonella typhimurium; assay: Growth of clinical strain MDR S. typhimurium; format: cell-based; details: 10 μM
Experimental: (§1) MG1655 E. coli cultures were started from individual colonies from 2% LB and 1.5% agar into M9 media. They were diluted 1:10,000 from overnight culture into fresh M9 with respective treatment and grown at 37° C. with 225 rpm shaking. Clinical strains were started from individual colonies grown on cation adjusted Mueller Hinton Broth with 1.5% agar into liquid CAMHB. These were diluted 1:10,000 into CAMHB medium with respective treatment and grown at 37° C. with 225 rpm shaking. Optical density measurements were taking using a Tecan GENios at 562 nm with a bandwidth of 35 nm. Lag time was calculated using Growth Rates Made Easy (Hall et al. Mol. Biol. Evol. 31(1):232-238).
(§2) MDR E. coli was inhibited by four of the six oligomers tested (α-folC, α-ffh, α-lexA, and α-rpsD), extended-spectrum beta-lactamase (ESBL) K. pneumoniae was inhibited by two of the antisense oligomers (α-fnrS and α-rpsD), and New Delhi metallo-β-lactamase (NDM-1) K. pneumoniae was inhibited by one of the oligomers tested (α-rpsD) (FIGS. 15-16).

[3] = system: MDR E. coli; assay: Growth of clinical strain MDR E. coli; format: cell-based; details: 10 μM
Experimental: as §1, §2

[4] = system: CRE E. coli; assay: Growth of clinical strain CRE E. coli; format: cell-based, Escherichia coli; details: 10 μM
Experimental: as §1, §2

[5] = system: MG1655 E. coli; assay: Growth (optical density, lag time) of MG1655; format: cell-based; details: 10 μM antisense inhibitor; for growth of MG1655 E. coli cultures: 24 h
Experimental: as §1, with “31(1):232-238). […]” for “31(1):232-238).”

[6] = system: ampicillin-resistant E. coli; format: cell-based; details: for growth of drug-resistant E. coli in presence of ampicillin: antisense oligomer plus 300 μg/mL ampicillin
Experimental: pAKgfp1 plasmid was obtained from Addgene for TEM-1 β-lactamase resistance gene, bla (43). The plasmid was cloned into chemically competent Zymo DH5a E. coli (Expressys). Untransformed Zymo DH5a was used as a control strain for β-lactamase activity assays. Liquid cultures were grown in 2% LB, incubated at 37° C. and shaken at 225 rpm. Solid cultures were grown on 2% LB broth, 1.5% agar at 37° C. Ampicillin sodium salt (Sigma Aldrich) was used for selection at a concentration of 300 μg/mL for MIC and CFU analysis. Optical density measurements were taken using a Tecan GENios at 562 nm with a bandwidth of 35 nm. All bacterial freezer stocks were stored in 40% glycerol at −80° C.

[7] = system: bla mRNA; assay: bla mRNA expression by qPCR; format: cell-based, E. coli; details: 5 μM α-TSS, 25 μM α-RBS, 25 μM α-YUNR; absence of ampicillin
Experimental: Three biological replicates were used for bla expression analysis. Cultures were pretreated overnight in respective PNA and liquid media in the absence of ampicillin and collected for RNA at 16 hr.
50 μL of the respective culture was added to 100 μL of Bacteria RNAprotect (Qiagen) and incubated at room temperature for 5 min. The cells were then pelleted via centrifugation for 3 min at 10,000 rpm, the supernatant removed, and samples were flash frozen in an ethanol dry ice bath and stored at −80° C. Precautions were taken to protect RNA from RNases using RNaseZap (Life Technologies). RNA was extracted from frozen cell pellets using GeneJET RNA purification kit (Thermo Scientific) and 350-600 ng was treated with Turbo DNA-free (Ambion). 50 ng cDNA was synthesized using Maxima Universal First Stand cDNA synthesis kit (Thermo Scientific). 1.5 ng of cDNA was used for qPCR with Maxima SYBR Green qPCR master mix with ROX normalization (Thermo Scientific) using Illumina Eco qPCR system. Transcript levels were analyzed using the ΔCq method with respect to moderately expressed housekeeping gene cysG (43). Transcript levels were further analyzed for the mutant populations using the ΔΔCq method with respect to the no treatment populations.

[8] = system: ESBL K. pneumoniae; assay: Growth of clinical strain ESBL K. pneumoniae; format: cell-based, Klebsiella pneumoniae; details: 10 μM
Experimental: as §1, §2

[9] = system: MG1655 E. coli; assay: Colony forming unit analysis of MG1655; format: cell-based; details: 10 μM, six and eight hours
Description: The effect of α-lexA, α-fnrS, and α-rpsD on cell viability using a colony forming unit analysis was then determine.

[10] = system: β-lactamase; details: 5 μM α-TSS, 25 μM α-RBS, 25 μM α-YUNR; absence of ampicillin
Experimental: Fluorocillin™ Green 495/525 β-lactamase substrate soluble product (Life Technologies) was used at a concentration of 2.2 μM as a β-lactamase substrate and measured using a Tecan GENios microplate reader in black flat bottom 96 well plate at 485/535 nm with a bandwidth of 35 nm. Three biological replicates were grown from colonies for 12 hours liquid media in the presence of the respective antisense agents, diluted 1:10 into liquid media and Fluorocillin green, and monitored in the Tecan GENios for 5 hr at 37° C. measuring every 2 min. The slope of fluorescence measured was used as a measure of β-lactamase activity.
Using quantitative real-time polymerase chain reaction (qPCR), expression levels of the bla gene in presence of the three antisense agents were measured. Studies were carried out with 5 μM α-TSS, 25 μM α-RBS, and 25 μM α-YUNR in the absence of ampicillin.

Compound	growth inhibition of MDR S. typhimurium [2]	growth inhibition of MDR E. coli [3]	growth inhibition of CRE E. coli [4]	lag time [5]	also measured
CC1(C)S[C@@H]2[C@H](NC(=O)[C@H](N)c3ccccc3)C(=O)N2[C@H]1C(=O)O [ampicillin, Ampicillin, reference compound]					slope of the transition from resistant to sensitive (Boltzman fit) [1]: −0.0051 ODmLμg^−1; ampicillin concentration up to which growth is without inhibition ([1]; 24 hr): 300 µg/mL; ampicillin concentration where no growth was observed ([1]; 24 hr): 700 µg/mL
KFFKFFKFFK -O-taatcatggtat (antisense TAATCATGGTAT; all peptide nucleic acid (PNA); (KFF)3K cell-penetrating peptide joined to the N-terminus through an O-linker) [α-folC, 12-mer antisense PNA centered on start codon of folC, O-linker to (KFF)3K]	inhibited	inhibited	inhibited		
KFFKFFKFFK-O-ttcgacatcaac (antisense TTCGACATCAAC; PNA, (KFF)3K peptide via O-linker, chemistry not fully specified) [α-gyrB, 12-mer antisense PNA centered on start codon of gyrB, O-linker to (KFF)3K]	inhibited		inhibited	significantly increased lag time	
KFFKFFKFFK-O-cctttttcaata (antisense CCTTTTTCAATA; PNA, (KFF)3K peptide via O-linker, chemistry not fully specified) [α-RBS]					re-sensitization of drug resistant E. coli to ampicillin [6]: re-sensitized drug resistant E. coli to ampicillin; also recorded: re-sensitization of drug resistant E. coli to ampicillin; also recorded: re-sensitize; growth in absence of ampicillin (toxicity of antisense agent) ([6]; absence of ampicillin): non-toxic effect; also recorded: No inhibition; growth of drug-resistant E. coli in presence of ampicillin [6]: hindered cell growth; also recorded: impact growth; also recorded: significant antibiotic effect; minimum inhibitory concentration (MIC) ([6]; in presence of 300 μg/mL ampicillin, after overnight pretreatment with antisense agent): 25 µM; bla mRNA expression [7]: did not affect bla transcript levels; also recorded: did not significantly reduce bla expression
KFFKFFKFFK-O-cacctgcaagag (antisense CACCTGCAAGAG; all peptide nucleic acid (PNA); (KFF)3K cell-penetrating peptide joined to the N-terminus through an O-linker) [α-fnrS]	inhibited		inhibited	significantly increased lag time	growth inhibition of ESBL K. pneumoniae [8]: inhibited; growth of MG1655 E. coli cultures [5]: completely inhibited; also recorded: completely prevented cell growth; also recorded: Complete inhibition
KFFKFFKFFK -O-gctttcattccg (antisense GCTTTCATTCCG; all peptide nucleic acid (PNA); (KFF)3K cell-penetrating peptide joined to the N-terminus through an O-linker) [α-lexA, 12-mer antisense PNA centered on start codon of lexA, O-linker to (KFF)3K]	inhibited	inhibited	inhibited	significantly increased lag time	viable cells at six and eight hours [9]: prevented significant increase in viable cells; also recorded: prevents significant increases in viable MG1655 E. coli cells; growth of MG1655 E. coli cultures [5]: completely inhibited; also recorded: completely prevented cell growth; also recorded: Complete inhibition
KFFKFFKFFK-O-gaataagggcga (antisense GAATAAGGGCGA; PNA, (KFF)3K peptide via O-linker, chemistry not fully specified) [α-YUNR]					β-lactamase activity [10]: no impact on protein activity; growth of drug-resistant E. coli in presence of ampicillin [6]: no impact on cell growth
KFFKFFKFFK -O-tcaaacattgtc (antisense TCAAACATTGTC; all peptide nucleic acid (PNA); (KFF)3K cell-penetrating peptide joined to the N-terminus through an O-linker) [α-ffh, 12-mer antisense PNA centered on start codon of ffh, O-linker to (KFF)3K]	inhibited	inhibited	inhibited		
